This data set concerns CCRIS mutagenicity, Ames/micronucleus/aberration tests. Put plainly: CCRIS mutagenicity studies.
Setting [1] is: Test System: AMES SALMONELLA TYPHIMURIUM, Strain/Indicator: TA98, Method: STANDARD PLATE.
[2] abbreviates: Test System: AMES SALMONELLA TYPHIMURIUM, Strain/Indicator: TA100, Metabolic Activation: RAT, LIVER, S-9, PHENOBARBITAL, Method: STANDARD PLATE.
The mark [3] stands for this setting: Test System: AMES SALMONELLA TYPHIMURIUM, Strain/Indicator: TA100, Method: STANDARD PLATE.

Calls of active or inactive are those of the source. The rule behind the calls is not given here.

This passage reports mutagenic call results from PubChem BioAssay AID1259407 (Chemical Carcinogenesis Research Information System (CCRIS), 2018).

As for `O[C@H]1C=Cc2c(ccc3c(Cl)c4ccccc4cc23)[C@@H]1O`, the mutagenic call (Test System: AMES SALMONELLA TYPHIMURIUM, Strain/Indicator: TA100, Metabolic Activation: RAT, LIVER, S-9, PCB, Method: STANDARD PLATE) was “active; positive”.

In the case of `CCc1c2ccccc2cc2c1ccc1ccccc12`, the mutagenic call is “active; positive” under setting [1], “inactive; negative” under setting [2] and “active; positive” under setting [3].

Take `CCc1c2ccccc2c(C)c2ccc3ccccc3c12`: the mutagenic call by setting is: under setting [1], “inactive; negative”; under setting [2], “inactive; negative”; under setting [3], “inactive; negative”.

In the case of `O=C1CCc2c1cc(C(F)(F)F)c1c3c(ccc21)[C@H](O)[C@@H](O)C=C3`, the mutagenic call (Test System: AMES SALMONELLA TYPHIMURIUM, Strain/Indicator: TA100, Metabolic Activation: RAT, LIVER, S-9, AROCLOR 1254) is “active; positive”.

`CC(C)CCO`: the mutagenic call by setting is: (Test System: CHINESE HAMSTER V-79, Strain/Indicator: V-79 (HPRT)/6-THIOGUANINE, Metabolic Activation: NONE, Method: STANDARD PLATE) “inactive; negative”; (Test System: CHINESE HAMSTER V-79, Strain/Indicator: V-79 (HPRT)/6-THIOGUANINE, Metabolic Activation: RAT LIVER S-9, Method: STANDARD PLATE) “inactive; negative”; (Test System: CHINESE HAMSTER V-79 CELLS, Strain/Indicator: V-79 CELLS (HPRT)/6-THIOGUANINE, Metabolic Activation: NONE, Method: PREINCUBATION) “inactive; negative”; (Test System: CHINESE HAMSTER V-79 CELLS, Strain/Indicator: V-79 CELLS (HPRT)/6-THIOGUANINE, Metabolic Activation: S-9 (3%), Method: PREINCUBATION) “inactive; negative”.
